From US20230286973A1, “PROTEIN SECRETION INHIBITORS” (KEZAR LIFE SCIENCES, priority 2020, published 2023)

Legend:
[1] = system: PD1-ss+10aa/Gaussia Luciferase; assay: Dox-Induced PD1-ss-Gluc Assay; format: cell-based; settings: 24 hr Dox induction; 293FRT/TO cells; mean; read-out: 24 hr Dox Inducible PD1ssGluc 293FRT/TO: Mean IC50
Procedure, shortened: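 The cell line was made by transfecting Flp-In 293 T-REx cells with a PD1 signal sequence+10aa–Gaussia luciferase fusion under T-REx control and selecting with hygromycin and blasticidin. Cells were seeded, and next day compound plus doxycycline was added at 37 °C, 5% CO2.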

[2] = system: IL-2-FL/Gaussia Luciferase; assay: Dox Induced IL2-FL-Gluc Assay; format: cell-based; settings: for IC50: 24 hr Dox induction, 293FRT/TO cells, mean, read-out: 24 hr Dox Inducible IL2FLGluc 293FRT/TO: Mean IC50; for 24 hr Dox Inducible IL2FLGluc 293FRT/TO: IL2/PD1: ratio of IL2FLGluc IC50 to PD1ssGluc IC50, '<=>' given where both are I.A.
Procedure, shortened: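 Stable Flp-In 293 T-REx line, Tet-regulated IL-2 (aa 1-153)–Gaussia luciferase fusion; hygromycin/blasticidin selected. Plated day -1; compound + doxycycline added next day; 37° C, 5% CO2.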

[3] = Liver Microsome Stability Assay (human); settings: human liver microsomes, with NADPH, 1.0 uM compound
Experimental: (§1) Stability of a compound was assessed in the presence of liver microsomes from various sources—mouse, rat, monkey and human liver microsomes. 1.0 uM compound, 0.4% DMSO in 0.1 M Potassium Phosphate with 1.0 mg/mL liver microsomes, were incubated at 37° C. with or without 1 mM NADPH. The samples were quenched at 0, and 30 minutes.

[4] = Liver Microsome Stability Assay (monkey); settings: monkey liver microsomes, with NADPH, 1.0 uM compound
Experimental: as §1

[5] = system: HER3-ss+4aa/Gaussia Luciferase; assay: Dox-Induced Her3-ss-Gluc Assay; format: cell-based; settings: 24 hr Dox induction; 293FRT/TO cells; mean; read-out: 24 hr Dox Inducible Her3(ss + 4)Gluc 293FRT/TO: Mean IC50
Procedure, shortened: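 Flp-In 293 T-REx cells, stable HER3-ss+4aa/Gaussia luciferase insert, hygromycin/blasticidin selected; plated day before; compound in DMSO/media + doxycycline; 37° C., 5% CO2.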

[6] = system: TNFα-FL/Gaussia Luciferase; assay: Dox Induced TNFα-FL-Gluc Assay; format: cell-based; settings: for IC50: 24 hr Dox induction, 293FRT/TO cells, mean, read-out: 24 hr Dox Inducible TNFaFLGluc 293FRT/TO: Mean IC50; for 24 hr Dox Inducible TNFaFLGluc 293FRT/TO: TNF/PD1: ratio of TNFaFLGluc IC50 to PD1ssGluc IC50, '<=>' given where both are I.A.
Procedure, shortened: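 Cell line: stable Flp-In 293 T-REx, TNFα-FL(1-233)-Gaussia luciferase fusion, T-REx-inducible. Plated day -1; compounds in DMSO/media + doxycycline, 37 °C, 5% CO2. Undefined stereocentres = mixture tested.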

[7] = system: multiple myeloma cell line NCI-H929; assay: H929 Cell Viability Assay; format: cell-based, human; settings: Homo sapiens, NCI-H929, 48 h, NCI-H929 cells, Celltiter-Glo
Procedure, shortened: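 Cells in RPMI 1640/10% FBS; compound dilutions in DMSO/media; 48 h, 37° C, 5% CO2; CellTiter-Glo luciferase readout for viability.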

[8] = Liver Microsome Stability Assay (rat); settings: rat liver microsomes, with NADPH, 1.0 uM compound
Experimental: as §1

[9] = Liver Microsome Stability Assay (mouse); settings: mouse liver microsomes, with NADPH, 1.0 uM compound
Experimental: as §1

[10] = system: multiple myeloma cell line U266B1; assay: U266 Cell Viability Assay; format: cell-based, human; settings: Homo sapiens, U-266, 48 h, U266B1 cells, Celltiter-Glo
Procedure, shortened: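 Luminescent ATP read-out (CellTiter-Glo) after 48 h compound exposure at 37° C., 5% CO2; cells maintained in RPMI 1640/10% FBS/2 mM glutamine/pen-strep, compounds diluted in DMSO/media.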

Row | IC50 [1] [µM] | IC50 [2] [µM] | Liver Microsome Stability (Multiple Species): Human - % Remaining after 30 min w/NADPH [3] [%] | Liver Microsome Stability (Multiple Species): Monkey - % Remaining after 30 min w/NADPH [4] [%] | IC50 [5] [µM] | IC50 [6] [µM] | EC50 [7] [µM] | Liver Microsome Stability (Multiple Species): Rat - % Remaining after 30 min w/NADPH [8] [%] | Liver Microsome Stability (Multiple Species): Mouse - % Remaining after 30 min w/NADPH [9] [%] | EC50 [10] [µM] | SMILES | 24 hr Dox Inducible IL2FLGluc 293FRT/TO: IL2/PD1 [2] | 24 hr Dox Inducible TNFaFLGluc 293FRT/TO: TNF/PD1 [6]
1 | 0.036 | 0.157 | 0.19 | 0.67 | 0.107 | 0.9 | 3.65 | 1.71 | 1.99 | > 25 | NC(=O)c1ccc(N2CCC[C@@H]2c2csc(NC(=O)c3cccn3CC3CCOCC3)n2)cc1 [Compound C105, (R)-N-(4-(1-(4-carbamoylphenyl)pyrrolidin-2-yl)thiazol-2-yl)-1-((tetrahydro-2H-pyran-4-yl)methyl)-1H-pyrrole-2-carboxamide] | 4.4 | 25
2 | 1.09 | 2.64 | 19 | 1.96 | 1.43 | 19.4 | > 25 | 3.54 | 28.8 | > 25 | N#CC1CC(Cn2cccc2C(=O)Nc2nc([C@H]3CCCN3c3ccccc3)cs2)C1 (stereo partly drawn) [Compound C106, (R)-1-((3-cyanocyclobutyl)methyl)-N-(4-(1-phenylpyrrolidin-2-yl)thiazol-2-yl)-1H-pyrrole-2-carboxamide] | 2.4 | 17.7
3 | 0.0322 | 0.0871 | 23.7 | 5.47 | 0.0562 | 0.793 | 2.16 | 18.2 | 16.4 | > 25 | CC(=O)Nc1ccc(N2CCC[C@@H]2c2csc(NC(=O)c3cccn3CC3CCOCC3)n2)cc1 [Compound C107, (R)-N-(4-(1-(4-acetamidophenyl)pyrrolidin-2-yl)thiazol-2-yl)-1-((tetrahydro-2H-pyran-4-yl)methyl)-1H-pyrrole-2-carboxamide] | 2.7 | 24.6
4 | 0.0314 | 0.0949 | 61.3 | 22.2 | 0.0464 | 0.302 | 1.78 | 36 | 74.3 | > 25 | CCc1ccc(N2CCC[C@@H]2c2csc(NC(=O)c3cccn3CC3CCOCC3)n2)cc1 [Compound C110, (R)-N-(4-(1-(4-ethylphenyl)pyrrolidin-2-yl)thiazol-2-yl)-1-((tetrahydro-2H-pyran-4-yl)methyl)-1H-pyrrole-2-carboxamide] | 3 | 9.61
5 | 0.318 | 0.654 | 0.86 | 0.28 | 0.295 | 4.94 | > 25 | 0.62 | 0.64 | > 25 | O=C(Nc1nc([C@H]2CCCN2c2ccccc2)cs1)c1cccn1-c1cccc2cnccc12 [Compound C111, (R)-1-(isoquinolin-5-yl)-N-(4-(1-phenylpyrrolidin-2-yl)thiazol-2-yl)-1H-pyrrole-2-carboxamide] | 2.1 | 15.5

Further lines, the compound ahead of its results:

Row | SMILES | IC50 [1] [µM] | IC50 [2] [µM] | Liver Microsome Stability (Multiple Species): Human - % Remaining after 30 min w/NADPH [3] [%] | Liver Microsome Stability (Multiple Species): Monkey - % Remaining after 30 min w/NADPH [4] [%] | IC50 [5] [µM] | IC50 [6] [µM] | EC50 [7] [µM] | Liver Microsome Stability (Multiple Species): Rat - % Remaining after 30 min w/NADPH [8] [%] | Liver Microsome Stability (Multiple Species): Mouse - % Remaining after 30 min w/NADPH [9] [%] | EC50 [10] [µM] | 24 hr Dox Inducible IL2FLGluc 293FRT/TO: IL2/PD1 [2] | 24 hr Dox Inducible TNFaFLGluc 293FRT/TO: TNF/PD1 [6]
6 | N#CC[C@H](O)Cn1cccc1C(=O)Nc1nc([C@H]2CCCN2c2ccccc2)cs1 [Compound C100, 1-((S)-3-cyano-2-hydroxypropyl)-N-(4-((R)-1-phenylpyrrolidin-2-yl)thiazol-2-yl)-1H-pyrrole-2-carboxamide] | 7.64 | 6.46 | 19.1 | 18.5 | 15.9 | > 25 | > 25 | 13.6 | 19.8 | > 25 | 0.85 | >3.27
7 | O=C(Nc1nc([C@H]2CCCN2c2ccccc2)cs1)c1cccn1Cc1ccnnc1 [Compound C102, (R)-N-(4-(1-phenylpyrrolidin-2-yl)thiazol-2-yl)-1-(pyridazin-4-ylmethyl)-1H-pyrrole-2-carboxamide] | 0.0442 | 0.0975 | 0.93 | 0.39 | 0.109 | 0.984 | 3.98 | 2.73 | 6.44 | 14.6 | 2.2 | 22.2
8 | CC(=O)N1CCC(Oc2ccc(N3CCC[C@@H]3c3csc(NC(=O)c4cccn4CC4CCOCC4)n3)cc2)CC1 [Compound C103, (R)-N-(4-(1-(4-((1-acetylpiperidin-4-yl)oxy)phenyl)pyrrolidin-2-yl)thiazol-2-yl)-1-((tetrahydro-2H-pyran-4-yl)methyl)-1H-pyrrole-2-carboxamide] | 0.665 | 1.16 | 34.8 | 12.9 | 1.34 | 4.99 | 14 | 30 | 54.8 | > 25 | 1.7 | 7.5
9 | CC(=O)NCc1ccc(N2CCC[C@@H]2c2csc(NC(=O)c3cccn3CC3CCOCC3)n2)cc1 [Compound C104, (R)-N-(4-(1-(4-(acetamidomethyl)phenyl)pyrrolidin-2-yl)thiazol-2-yl)-1-((tetrahydro-2H-pyran-4-yl)methyl)-1H-pyrrole-2-carboxamide] | 0.143 | 0.413 | 3.01 | 0.09 | 0.35 | 2.41 | 6.16 | 0.82 | 4.94 | > 25 | 2.9 | 16.8
